Measured values as given in patent US10155021B2, “Antimicrobial 4-oxoquinolizines” (Emergent Product Development Gaithersburg Inc., priority 2011, dated 2018).
Converted amounts (≈) assume the structure as drawn. Where two headings read alike, the source gives them in different places.

Columns and labels:
P. aeruginosa 1388-3-02 = assay: MIC, panel of quinolone-resistant strains (CLSI); type: cell-based; settings: Pseudomonas aeruginosa, 1388302; CIP R, POL R
A. baumannii A472 [1] = assay: MIC determination for Acinetobacter strains (Example 3); type: cell-based; settings: LEV R, CIP R, MRP I, IMP I, AMK R, TET R
A. baumannii A472 [2] = assay: MIC without and with sub-inhibitory polymyxin B (Example 4); type: cell-based, Acinetobacter baumannii; settings: Acinetobacter baumannii, A472, A. baumannii A472, without polymyxin B, read-out: MIC without PB
A. baumannii J2 [3] = assay: Preliminary MBC without and with sub-inhibitory polymyxin B (Example 4); type: cell-based, Acinetobacter baumannii; settings: Acinetobacter baumannii, J2, A. baumannii J2, without polymyxin B, preliminary MBC, read-out: MBC without PB
[4] = tested on: Acinetobacter sp. (H064200250); assay: as above; type: cell-based; settings: Acinetobacter, without polymyxin B, preliminary MBC, read-out: MBC without PB
Method in brief: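 Read-out: the minimum concentration at which colonies were reduced by ca. 90% relative to positive control, usually seen as isolated colonies or a clear plate. Plates had been kept 18-20 hours at 37° C beforehand.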

A. baumannii A329 [5] = assay: MIC determination for Acinetobacter strains (Example 3); type: cell-based; settings: LEV R, CIP R, MRP R, IMP R, AMK R, TET R
A. baumannii J2 [6] = assay: MIC without and with sub-inhibitory polymyxin B (Example 4); type: cell-based, Acinetobacter baumannii; settings: Acinetobacter baumannii, J2, A. baumannii J2, without polymyxin B, read-out: MIC without PB
A. baumannii A473 = assay: as above; type: cell-based, Acinetobacter baumannii; settings: Acinetobacter baumannii
A. baumannii A390 = assay: Preliminary MBC without and with sub-inhibitory polymyxin B (Example 4); type: cell-based, Acinetobacter baumannii; settings: Acinetobacter baumannii, A390, A. baumannii A390, without polymyxin B, preliminary MBC, read-out: MBC without PB
A. baumannii A489 [7] = assay: as above; type: cell-based, Acinetobacter baumannii; settings: Acinetobacter baumannii, A489, A. baumannii A489, without polymyxin B, read-out: MBC without PB
P. aeruginosa 143-3-03 = assay: MIC, panel of quinolone-resistant strains (CLSI); type: cell-based; settings: Pseudomonas aeruginosa, 143303; CIP I, POL R
E. coli CTX-M-15 = assay: MIC, panel of quinolone-resistant strains (CLSI); type: cell-based; settings: Escherichia coli, CTXM15; CIP R, ESBL
[8] = tested on: Acinetobacter sp. (H064200250); assay: MIC without and with sub-inhibitory polymyxin B (Example 4); type: cell-based; settings: Acinetobacter
A. baumannii A 401 = assay: MIC determination for Acinetobacter strains (Example 3); type: cell-based; settings: A401, LEV R, CIP R, AMK R, TET R
A. baumannii ATCC 19606 = assay: MIC without and with sub-inhibitory polymyxin B (Example 4); type: cell-based, Acinetobacter baumannii; settings: Acinetobacter baumannii, ATCC19606, A. baumannii ATCC 19606, without polymyxin B, read-out: MIC without PB
A. baumannii A401 [9] = assay: as above; type: cell-based, Acinetobacter baumannii; settings: Acinetobacter baumannii, A401, A baumannii A 401, without polymyxin B, read-out: MIC without PB
A. baumannii A401 [10] = assay: Preliminary MBC without and with sub-inhibitory polymyxin B (Example 4); type: cell-based, Acinetobacter baumannii; settings: Acinetobacter baumannii, A401, A baumannii A 401, without polymyxin B, preliminary MBC, read-out: MBC without PB
Pseudomonas ssp PER-1 = assay: MIC, panel of quinolone-resistant strains (CLSI); type: cell-based, Pseudomonas spp; settings: PER1, CIP R, ESBL
E. coli 2906 = assay: MIC, panel of quinolone-resistant strains (CLSI); type: cell-based; settings: Escherichia coli, CIP R
[11] = tested on: resistant strains of A. baumannii and one strain of Acinetobacter sp.; assay: MIC without and with sub-inhibitory polymyxin B, whole panel / MIC ranges (Example 4; also strains not listed separately); type: cell-based; settings: Acinetobacter baumannii
Klebsiella ssp KPC-3 = assay: MIC, panel of quinolone-resistant strains (CLSI); type: cell-based, Klebsiella spp; settings: KPC3, CIP R, ESBL
A. baumannii A329 [12] = assay: MIC without and with sub-inhibitory polymyxin B (Example 4); type: cell-based, Acinetobacter baumannii; settings: Acinetobacter baumannii
A. baumannii A329 [13] = assay: Preliminary MBC without and with sub-inhibitory polymyxin B (Example 4); type: cell-based, Acinetobacter baumannii; settings: Acinetobacter baumannii, A329, A. baumannii A329, without polymyxin B, read-out: MBC without PB
A. baumannii A489 [14] = assay: MIC without and with sub-inhibitory polymyxin B (Example 4); type: cell-based, Acinetobacter baumannii; settings: Acinetobacter baumannii, A489, A. baumannii A489, without polymyxin B, read-out: MIC without PB
[15] = Acinetobacter spp. H064200250 (OXA51), 2nd experiment
[16] = Acinetobacter spp. H064200250, 1st experiment
[17] = A473, A. baumannii A473, without polymyxin B, 2nd experiment, visual reading, read-out: MIC without PB
[18] = Acinetobacter spp. H064200250 (OXA51), without polymyxin B, 2nd experiment, visual reading, read-out: MIC without PB
[19] = Acinetobacter spp. H064200250, without polymyxin B, 1st experiment, read-out: MIC without PB
[20] = A329, A. baumannii A329, without polymyxin B, 1st experiment, read-out: MIC without PB

`Cc1c(-c2ccc(N)cc2)ccn2c(=O)c(C(=O)O)cc(C3CC3)c12` [Compound 8, 8-(4-amino-phenyl)-1-cyclopropyl-9-methyl-4-oxo-quinolizine-3-carboxylic acid] gave an MIC (P. aeruginosa 1388-3-02) of 8 µg/mL (≈ 23.9 µM), an MIC (A. baumannii A472 [1]) of 4 µg/mL (≈ 12 µM) and an MIC (A. baumannii A472 [2]; 1st experiment) of 4 µg/mL (≈ 12 µM). For the same compound, the MIC (A. baumannii A472 [2]; 2nd experiment, visual reading) was 4 µg/mL (≈ 12 µM), the MBC (A. baumannii J2 [3]; 2nd experiment) was 4 µg/mL (≈ 12 µM) and the MBC (A. baumannii J2 [3]; 1st experiment) was 8 µg/mL (≈ 23.9 µM). The MBC [4, 15] was 4 µg/mL (≈ 12 µM), the MBC [4, 16] was 4 µg/mL (≈ 12 µM) and the MIC (A. baumannii A329 [5]) was 16 µg/mL (≈ 47.9 µM). For the same compound, the MIC (A. baumannii J2 [6]; 2nd experiment, visual reading) was 4 µg/mL (≈ 12 µM), the MIC (A. baumannii A473; [17]) was 4 µg/mL (≈ 12 µM) and the MBC (A. baumannii A390; 1st experiment) was 8 µg/mL (≈ 23.9 µM). For the same compound, the MBC (A. baumannii A489 [7]; 2nd experiment) was 8 µg/mL (≈ 23.9 µM), the MIC (P. aeruginosa 143-3-03) was 2 µg/mL (≈ 5.98 µM) and the MIC (E. coli CTX-M-15) was greater than 32 µg/mL. It also gave an MIC ([8]; Acinetobacter spp. H064200250 (OXA51), without polymyxin B, 2nd experiment, MIC read with alamar blue, read-out: MIC without PB, read with alamar blue) of 8 µg/mL (≈ 23.9 µM), an MIC [8, 18] of 4 µg/mL (≈ 12 µM) and an MIC [8, 19] of 2 µg/mL (≈ 5.98 µM). The MIC (A. baumannii A 401) was 32 µg/mL (≈ 95.7 µM), the MIC (A. baumannii ATCC 19606; 1st experiment) was 1 µg/mL (≈ 2.99 µM) and the MIC (A. baumannii A401 [9]; 1st experiment) was 32 µg/mL (≈ 95.7 µM). It also gave an MBC (A. baumannii A401 [10]; 2nd experiment) of 8 µg/mL (≈ 23.9 µM), an MBC (A. baumannii A401 [10]; 1st experiment) of 8 µg/mL (≈ 23.9 µM) and an MIC (Pseudomonas ssp PER-1) of 16 µg/mL (≈ 47.9 µM). It also gave an MIC (E. coli 2906) greater than 32 µg/mL, an MIC ([11]; A. baumannii A14, without polymyxin B, 1st experiment, read-out: MIC without PB) of 32 µg/mL (≈ 95.7 µM) and an MIC ([11]; NCTC13301, A. baumannii NCTC 13301, without polymyxin B, 1st experiment, read-out: MIC without PB) of 32 µg/mL (≈ 95.7 µM). It also gave an MIC ([11]; NCTC13301, A. baumannii NCTC 13301, without polymyxin B, 2nd experiment, visual reading, read-out: MIC without PB) of 16 µg/mL (≈ 47.9 µM), an MIC (Klebsiella ssp KPC-3) of 16 µg/mL (≈ 47.9 µM) and an MIC (A. baumannii A329 [12]; [20]) of 16 µg/mL (≈ 47.9 µM). It also gave an MBC (A. baumannii A329 [13]; 2nd experiment) of 8 µg/mL (≈ 23.9 µM).

In the case of `Cc1c(-c2cc(F)c(N)cc2F)ccn2c(=O)c(C(=O)O)cc(C3CC3)c12` [Compound 2, 8-(3,6-difluoro-4-amino-phenyl)-1-cyclopropyl-9-methyl-4-oxo-quinolizine-3-carboxylic acid], the MIC (P. aeruginosa 1388-3-02) is reported as 8 µg/mL (≈ 21.6 µM), the MIC (A. baumannii A472 [1]) is reported as 4 µg/mL (≈ 10.8 µM) and the MIC (A. baumannii A472 [2]; 1st experiment) is reported as 4 µg/mL (≈ 10.8 µM). The MIC (A. baumannii A472 [2]; 2nd experiment, visual reading) was 4 µg/mL (≈ 10.8 µM), the MBC (A. baumannii J2 [3]; 2nd experiment) was 8 µg/mL (≈ 21.6 µM) and the MBC (A. baumannii J2 [3]; 1st experiment) was 4 µg/mL (≈ 10.8 µM). The MBC [4, 15] was 8 µg/mL (≈ 21.6 µM), the MBC [4, 16] was 4 µg/mL (≈ 10.8 µM) and the MIC (A. baumannii A329 [5]) was 8 µg/mL (≈ 21.6 µM). For the same compound, the MIC (A. baumannii J2 [6]; 1st experiment) was 4 µg/mL (≈ 10.8 µM), the MIC (A. baumannii J2 [6]; 2nd experiment, visual reading) was 4 µg/mL (≈ 10.8 µM) and the MIC (A. baumannii A473; A473, A. baumannii A473, without polymyxin B, 1st experiment, read-out: MIC without PB) was 8 µg/mL (≈ 21.6 µM). The MIC (A. baumannii A473; [17]) was 4 µg/mL (≈ 10.8 µM), the MIC (A. baumannii A473; A473, read-out: MIC +0.06 μg/ml PB, read with alamar blue, A. baumannii A473, +0.06 μg/ml polymyxin B, 2nd experiment, MIC read with alamar blue) was 0.125 µg/mL and the MBC (A. baumannii A390; 2nd experiment) was 16 µg/mL (≈ 43.2 µM). It also gave an MBC (A. baumannii A390; 1st experiment) of 8 µg/mL (≈ 21.6 µM), an MBC (A. baumannii A489 [7]; 1st experiment) of 2 µg/mL (≈ 5.4 µM) and an MBC (A. baumannii A489 [7]; 2nd experiment) of 4 µg/mL (≈ 10.8 µM). For the same compound, the MIC (P. aeruginosa 143-3-03) was 2 µg/mL (≈ 5.4 µM), the MIC (E. coli CTX-M-15) was greater than 32 µg/mL and the MIC [8, 18] was 4 µg/mL (≈ 10.8 µM). For the same compound, the MIC [8, 19] was 4 µg/mL (≈ 10.8 µM), the MIC ([8]; read-out: MIC +[…] PB, read with alamar blue, Acinetobacter spp. H064200250 (OXA51), +[…] polymyxin B, 2nd experiment, MIC read with alamar blue) was 0.06 µg/mL (≈ 0.162 µM) and the MIC (A. baumannii A489 [14]; 1st experiment) was 2 µg/mL (≈ 5.4 µM). For the same compound, the MIC (A. baumannii A489 [14]; 2nd experiment, visual reading) was 4 µg/mL (≈ 10.8 µM), the MIC (A. baumannii A 401) was 4 µg/mL (≈ 10.8 µM) and the MIC (A. baumannii ATCC 19606; 2nd experiment, visual reading) was 0.125 µg/mL (≈ 0.338 µM). For the same compound, the MIC (A. baumannii A401 [9]; 1st experiment) was 4 µg/mL (≈ 10.8 µM), the MIC (A. baumannii A401 [9]; 2nd experiment, visual reading) was 4 µg/mL (≈ 10.8 µM) and the MBC (A. baumannii A401 [10]; 2nd experiment) was 4 µg/mL (≈ 10.8 µM). For the same compound, the MBC (A. baumannii A401 [10]; 1st experiment) was 2 µg/mL (≈ 5.4 µM), the MIC (Pseudomonas ssp PER-1) was 16 µg/mL (≈ 43.2 µM) and the MIC (E. coli 2906) was 32 µg/mL (≈ 86.4 µM). For the same compound, the MIC ([11]; read-out: MIC range without PB 01-10-2008 n = 8, without polymyxin B, 1st experiment, 8 strains) was 0.5 to 16 µg/mL (≈ 1.35 to 43.2 µM), the MIC ([11]; without polymyxin B, 2nd experiment, 11 strains, read-out: MIC range without PB 14-10-2008 n = 11) was 1 to 16 µg/mL (≈ 2.7 to 43.2 µM) and the MIC (Klebsiella ssp KPC-3) was 8 µg/mL (≈ 21.6 µM). It also gave an MIC (A. baumannii A329 [12]; [20]) of 8 µg/mL (≈ 21.6 µM), an MIC (A. baumannii A329 [12]; A329, A. baumannii A329, without polymyxin B, 2nd experiment, visual reading, read-out: MIC without PB) of 8 µg/mL (≈ 21.6 µM) and an MIC (A. baumannii A329 [12]; A329, read-out: MIC +0.06 μg/ml PB, read with alamar blue, A. baumannii A329, +0.06 μg/ml polymyxin B, 2nd experiment, MIC read with alamar blue) of 1 µg/mL. For the same compound, the MBC (A. baumannii A329 [13]; 1st experiment) was 8 µg/mL (≈ 21.6 µM) and the MBC (A. baumannii A329 [13]; 2nd experiment) was 8 µg/mL (≈ 21.6 µM).
